Assay results from ChEMBL document CHEMBL1201862, “PubChem BioAssay data set” (2004).
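Where inhibition never reached the appropriate level, the endpoint shown equals the highest concentration tested. Otherwise, values were interpolated linearly from a five-concentration, 48-hour dose response in 96-well plates. GI50 is the concentration that inhibits growth by half.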 Calls of active or inactive are those of the source. Rule as the data show it: active = GI50 up to about 1.1 µM and inactive = higher.

Legend:
Assay in all cases: NCI anticancer screen, dose series, 48 h
[1] = system: U-251
[2] = system: SK-OV-3
[3] = system: SF-295
[4] = system: HT-29
[5] = system: HOP-62
[6] = system: HOP-92
[7] = system: SN12C
[8] = system: CAKI-1
[9] = system: NCI-H522
[10] = system: SK-MEL-2
[11] = system: OVCAR-4
[12] = system: NCI-H460
[13] = system: EKVX
[14] = system: RXF 393
[15] = system: SF-268
[16] = system: SNB-75
[17] = system: A498

Measured: GI50

CCCCCCCCCCCCCCCc1nnc(SCC(=O)O)[nH]1
inactive: [1] 26.4 µM | [2] 45.4 µM | [3] 40 µM | [4] 31.7 µM | [5] > 100 µM | [6] 32.1 µM | [7] 71.9 µM | [8] 63.2 µM | [9] 41.6 µM | [10] 37.9 µM | [11] 45.7 µM | [12] > 100 µM | [13] > 100 µM | [14] > 100 µM | [15] 42 µM

CCCCc1c2c(nc3c1CC/C(=C\c1ccccc1)C3=O)CCCC2
inactive: [1] 3.49 µM | [2] 10.2 µM | [3] 4.47 µM | [4] 2.22 µM | [5] 4.62 µM | [7] 3.18 µM | [9] 2.15 µM | [16] 11 µM | [12] 4.89 µM | [13] 12.2 µM | [14] 2.6 µM | [15] 3.49 µM

CC1(C)C(=O)C(C)(C)C1=NN
inactive: [1] > 100 µM | [2] > 100 µM | [3] > 100 µM | [4] > 100 µM | [5] > 100 µM | [6] > 100 µM | [7] > 100 µM | [8] > 100 µM | [9] > 100 µM | [11] > 100 µM | [16] > 100 µM | [12] > 100 µM | [14] > 100 µM | [15] > 100 µM

O=C(c1cccs1)N(C(=S)N1CCN(c2ccccn2)CC1)C1CCCCC1
inactive: [1] 79.1 µM | [2] > 100 µM | [3] > 100 µM | [4] 52 µM | [5] > 100 µM | [6] 66.2 µM | [7] > 100 µM | [8] 76.2 µM | [9] 66.2 µM | [10] 58.6 µM | [11] > 100 µM | [16] > 100 µM | [12] 54.6 µM | [14] 22.5 µM | [15] > 100 µM

COc1cccc(NC(=O)CSc2nnc(-c3ccc(NC(C)=O)cc3)o2)c1
inactive: [1] > 100 µM | [2] > 100 µM | [3] > 100 µM | [4] 39.6 µM | [5] > 100 µM | [6] > 100 µM | [7] > 100 µM | [8] > 100 µM | [9] > 100 µM | [10] > 100 µM | [11] > 100 µM | [16] 30.5 µM | [12] > 100 µM | [14] > 100 µM | [15] > 100 µM

Cc1cc(C=O)c2c(=O)c3c(O)ccc(/C=C/C(C)C)c3oc2c1
inactive: [1] 41.1 µM | [3] > 100 µM | [4] > 100 µM | [5] > 100 µM | [6] 68.9 µM | [8] 64.7 µM | [9] 28.7 µM | [10] > 100 µM | [11] 31.4 µM | [16] 95.1 µM | [12] > 100 µM | [15] 41.9 µM

NC1=NN(c2ccccc2)C(=O)C1/C(=N\NC(=O)c1cc2ccccc2cc1O)C(=O)Nc1cccc(C(F)(F)F)c1 (centres undefined)
inactive: [1] 37.7 µM | [3] 49.1 µM | [4] 41 µM | [5] 39.4 µM | [6] 33.2 µM | [7] 46.6 µM | [10] 22.4 µM | [11] 42.5 µM | [16] > 100 µM | [12] 27.1 µM | [13] 35.6 µM | [14] 55.1 µM | [15] 23.5 µM

CC1(O)CCC2(C)C(=O)C1(C)CCC21OCCO1 (centres undefined)
inactive: [1] > 100 µM | [2] > 100 µM | [3] > 100 µM | [4] > 100 µM | [6] > 100 µM | [7] > 100 µM | [9] > 100 µM | [10] > 100 µM | [12] > 100 µM | [13] > 100 µM | [14] > 100 µM | [15] > 100 µM

Cc1ccc(NC(=O)CC/C(CC(=O)c2ccc(Cl)cc2)=N\NC(=O)C(=O)NN)cc1C
inactive: [1] > 100 µM | [2] > 100 µM | [3] > 100 µM | [4] > 100 µM | [5] > 100 µM | [7] > 100 µM | [8] > 100 µM | [9] > 100 µM | [10] > 100 µM | [11] > 100 µM | [17] > 100 µM | [16] > 100 µM | [12] > 100 µM | [13] > 100 µM | [14] > 100 µM | [15] > 100 µM

Nc1cccc(S(=O)(=O)NCC(=O)O)c1
inactive: [1] > 100 µM | [2] > 100 µM | [3] > 100 µM | [4] > 100 µM | [5] > 100 µM | [7] > 100 µM | [8] > 100 µM | [9] > 100 µM | [10] > 100 µM | [11] > 100 µM | [16] > 100 µM | [12] > 100 µM | [13] > 100 µM | [14] > 100 µM | [15] > 100 µM
